The numbers were not newly measured in patent US20020068688A1, “Cleaning compositions” (Unilever Home & Personal Care USA, Division of Conopco, Inc., priority 2000, published 2002), which cites them from elsewhere.

For the data set the following is noted: grams of solid to form a saturated solution in 100 grams of water at 20° C.

Structures are written as SMILES. A value given as a limit tells only on which side of the number the result lay.

As to `NC(N)=O` [Urea], the “Water Solubility” value was above 100 g/100 g.
